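1) Cells in 96-well plates. 2) Compound, 48 h, 5 concentrations. 3) Linear interpolation between surrounding doses. 4) Unreached endpoint = highest concentration. TGI denotes the concentration required for complete inhibition of growth.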
Key:
Test in all cases: NCI anticancer screen, dose series, 48 h
786-0 renal = system: 786-0 renal
A549 NSCLC = system: A549 NSCLC
ACHN renal = system: ACHN renal
HS 578T breast = system: HS 578T breast
HT29 colon = system: HT29 colon
MDA-MB-231 breast = system: MDA-MB-231 breast
MDA-MB-435 = system: MDA-MB-435
NCI-H460 lung = system: NCI-H460 lung
NCI/ADR-RES ovarian = system: NCI/ADR-RES ovarian
PC-3 prostate = system: PC-3 prostate
RXF 393 renal = system: RXF 393 renal
SF-295 CNS = system: SF-295 CNS
SF-539 CNS = system: SF-539 CNS
SK-MEL-28 melanoma = system: SK-MEL-28 melanoma
SN12C renal = system: SN12C renal
SR leukemia = system: SR leukemia
T-47D breast = system: T-47D breast
UACC-257 melanoma = system: UACC-257 melanoma

Cc1c(N=Nc2ccccc2)c(-c2ccccc2)n(C2OC(CO)C(O)C(O)C2O)c(=S)c1C#N (stereo not given)
TGI (786-0 renal): 18.8 µM | TGI (A549 NSCLC): 21.5 µM | TGI (ACHN renal): 18.8 µM | TGI (HS 578T breast): > 100 µM | TGI (HT29 colon): 29.7 µM | TGI (MDA-MB-231 breast): 44.4 µM | TGI (MDA-MB-435): 19.5 µM | TGI (NCI-H460 lung): 97.6 µM | TGI (NCI/ADR-RES ovarian): 46.6 µM | TGI (PC-3 prostate): 15.6 µM | TGI (RXF 393 renal): 10.3 µM | TGI (SF-295 CNS): 55.8 µM | TGI (SF-539 CNS): 20.6 µM | TGI (SK-MEL-28 melanoma): 19.6 µM | TGI (SN12C renal): 28.5 µM | TGI (SR leukemia): > 100 µM | TGI (T-47D breast): 4.74 µM

Cc1ccc2c(c1)C(=O)C1(C2)Cc2c(C)cccc2C1=O (stereo not given)
TGI (786-0 renal): > 100 µM | TGI (A549 NSCLC): > 100 µM | TGI (ACHN renal): > 100 µM | TGI (HS 578T breast): > 100 µM | TGI (HT29 colon): > 100 µM | TGI (MDA-MB-231 breast): > 100 µM | TGI (MDA-MB-435): > 100 µM | TGI (NCI-H460 lung): > 100 µM | TGI (NCI/ADR-RES ovarian): > 100 µM | TGI (PC-3 prostate): > 100 µM | TGI (RXF 393 renal): > 100 µM | TGI (SF-295 CNS): > 100 µM | TGI (SF-539 CNS): > 100 µM | TGI (SK-MEL-28 melanoma): > 100 µM | TGI (SN12C renal): > 100 µM | TGI (SR leukemia): > 100 µM | TGI (T-47D breast): > 100 µM | TGI (UACC-257 melanoma): > 100 µM

Nc1cc(Cl)cc2cc(Cl)cnc12
TGI (786-0 renal): > 100 µM | TGI (A549 NSCLC): > 100 µM | TGI (ACHN renal): > 100 µM | TGI (HS 578T breast): > 100 µM | TGI (HT29 colon): > 100 µM | TGI (MDA-MB-231 breast): > 100 µM | TGI (MDA-MB-435): > 100 µM | TGI (NCI-H460 lung): > 100 µM | TGI (NCI/ADR-RES ovarian): > 100 µM | TGI (PC-3 prostate): > 100 µM | TGI (RXF 393 renal): > 100 µM | TGI (SF-295 CNS): > 100 µM | TGI (SF-539 CNS): > 100 µM | TGI (SK-MEL-28 melanoma): > 100 µM | TGI (SN12C renal): > 100 µM | TGI (SR leukemia): > 100 µM | TGI (T-47D breast): > 100 µM | TGI (UACC-257 melanoma): > 100 µM

COC(=O)/C(C)=N/NC(=S)SC
TGI (786-0 renal): > 100 µM | TGI (ACHN renal): > 100 µM | TGI (HS 578T breast): > 100 µM | TGI (HT29 colon): > 100 µM | TGI (MDA-MB-231 breast): > 100 µM | TGI (MDA-MB-435): > 100 µM | TGI (NCI-H460 lung): > 100 µM | TGI (NCI/ADR-RES ovarian): > 100 µM | TGI (PC-3 prostate): > 100 µM | TGI (RXF 393 renal): 97 µM | TGI (SF-295 CNS): > 100 µM | TGI (SF-539 CNS): > 100 µM | TGI (SK-MEL-28 melanoma): > 100 µM | TGI (SR leukemia): > 100 µM | TGI (T-47D breast): 80.6 µM | TGI (UACC-257 melanoma): > 100 µM

CN1CCC23c4c5ccc(Oc6nnnn6-c6ccccc6)c4OC2c2[nH]c4ccccc4c2CC3(O)C1C5 (stereo not given)
TGI (786-0 renal): 3.33 µM | TGI (A549 NSCLC): 13.1 µM | TGI (ACHN renal): 3.52 µM | TGI (HS 578T breast): 33.9 µM | TGI (HT29 colon): 5.3 µM | TGI (MDA-MB-231 breast): 4.16 µM | TGI (MDA-MB-435): 8.41 µM | TGI (NCI-H460 lung): 3.66 µM | TGI (NCI/ADR-RES ovarian): 19.7 µM | TGI (PC-3 prostate): 15 µM | TGI (RXF 393 renal): 5.67 µM | TGI (SF-295 CNS): 15.3 µM | TGI (SK-MEL-28 melanoma): 4.73 µM | TGI (SN12C renal): 8.67 µM | TGI (SR leukemia): 3.72 µM | TGI (T-47D breast): 23.1 µM | TGI (UACC-257 melanoma): 3.32 µM

O=C1c2ccccc2C(=O)C2NC(CCCCCSSCCCCCC3=NC4C(=O)c5ccccc5C(=O)C4N3)=NC12 (stereo not given)
TGI (786-0 renal): > 100 µM | TGI (ACHN renal): > 100 µM | TGI (HS 578T breast): > 100 µM | TGI (HT29 colon): > 100 µM | TGI (MDA-MB-231 breast): > 100 µM | TGI (MDA-MB-435): > 100 µM | TGI (NCI-H460 lung): > 100 µM | TGI (NCI/ADR-RES ovarian): > 100 µM | TGI (PC-3 prostate): > 100 µM | TGI (RXF 393 renal): > 100 µM | TGI (SF-295 CNS): > 100 µM | TGI (SF-539 CNS): > 100 µM | TGI (SK-MEL-28 melanoma): > 100 µM | TGI (SR leukemia): > 100 µM | TGI (T-47D breast): > 100 µM | TGI (UACC-257 melanoma): > 100 µM

CC1=NN(c2ccccc2)C2(C1)C(Cl)C(=O)N2c1nc2ccccc2s1 (stereo not given)
TGI (786-0 renal): > 100 µM | TGI (A549 NSCLC): > 100 µM | TGI (ACHN renal): > 100 µM | TGI (HS 578T breast): > 100 µM | TGI (HT29 colon): > 100 µM | TGI (MDA-MB-231 breast): 89.2 µM | TGI (MDA-MB-435): > 100 µM | TGI (NCI-H460 lung): > 100 µM | TGI (NCI/ADR-RES ovarian): 68.5 µM | TGI (PC-3 prostate): > 100 µM | TGI (RXF 393 renal): 97.7 µM | TGI (SF-295 CNS): > 100 µM | TGI (SK-MEL-28 melanoma): > 100 µM | TGI (SN12C renal): > 100 µM | TGI (SR leukemia): 80 µM | TGI (T-47D breast): > 100 µM | TGI (UACC-257 melanoma): > 100 µM

Cc1nc(N)c(N2CCN(S(N)(=O)=O)CC2)c(=O)[nH]1
TGI (786-0 renal): > 100 µM | TGI (A549 NSCLC): > 100 µM | TGI (ACHN renal): > 100 µM | TGI (HS 578T breast): > 100 µM | TGI (HT29 colon): > 100 µM | TGI (MDA-MB-231 breast): > 100 µM | TGI (MDA-MB-435): > 100 µM | TGI (NCI-H460 lung): > 100 µM | TGI (NCI/ADR-RES ovarian): > 100 µM | TGI (PC-3 prostate): > 100 µM | TGI (SF-295 CNS): > 100 µM | TGI (SF-539 CNS): > 100 µM | TGI (SK-MEL-28 melanoma): > 100 µM | TGI (SN12C renal): > 100 µM | TGI (SR leukemia): > 100 µM | TGI (T-47D breast): > 100 µM | TGI (UACC-257 melanoma): > 100 µM

C1C2CC3CC1CC(c1nn4c(C56CC7CC(CC(C7)C5)C6)nnc4s1)(C2)C3
TGI (786-0 renal): > 100 µM | TGI (A549 NSCLC): > 100 µM | TGI (ACHN renal): > 100 µM | TGI (HS 578T breast): > 100 µM | TGI (HT29 colon): > 100 µM | TGI (MDA-MB-231 breast): > 100 µM | TGI (MDA-MB-435): > 100 µM | TGI (NCI-H460 lung): > 100 µM | TGI (NCI/ADR-RES ovarian): > 100 µM | TGI (PC-3 prostate): > 100 µM | TGI (RXF 393 renal): > 100 µM | TGI (SF-295 CNS): > 100 µM | TGI (SF-539 CNS): > 100 µM | TGI (SK-MEL-28 melanoma): > 100 µM | TGI (SN12C renal): > 100 µM | TGI (SR leukemia): > 100 µM | TGI (T-47D breast): > 100 µM

C=C(C)C1CC=C(C)C(=O)C1 (stereo not given)
TGI (786-0 renal): > 100 µM | TGI (A549 NSCLC): > 100 µM | TGI (ACHN renal): > 100 µM | TGI (HS 578T breast): > 100 µM | TGI (HT29 colon): > 100 µM | TGI (MDA-MB-231 breast): > 100 µM | TGI (MDA-MB-435): > 100 µM | TGI (NCI-H460 lung): > 100 µM | TGI (NCI/ADR-RES ovarian): > 100 µM | TGI (PC-3 prostate): > 100 µM | TGI (SF-295 CNS): > 100 µM | TGI (SF-539 CNS): > 100 µM | TGI (SK-MEL-28 melanoma): > 100 µM | TGI (SN12C renal): > 100 µM | TGI (SR leukemia): > 100 µM | TGI (T-47D breast): > 100 µM | TGI (UACC-257 melanoma): > 100 µM
